According to patent US6046219A, “Method for the treatment of conditions mediated by collagen formation together with cell proliferation by application of inhibitors of protein hydroxylation” (Cornell Research Foundation, Inc., priority 1997, dated 2000):
Entries after “also recorded” stand apart in the source; their conditions may differ.

Tests used:
[1] = system: type I procollagen; assay: Type I procollagen secretion by SMC; format: cell-based; conditions: human SMC, FIG. 6b
Protocol: (§1) Type III collagen biosynthesis (FIG. 6a) was assessed by a commercial radioimmunoassay using a monoclonal antibody to the N-terminal propeptide of type III procollagen. Plasminogen activator inhibitor-1 ("PAI-1") activity was measured by a standard enzymatic method. Type I collagen biosynthesis (FIG. 6b) was assessed by routine Western blot using a monoclonal antibody to the C-terminal propeptide of type I procollagen.
(§2) SMC or MRC-5 cells (3-5×10^6 cells/35 mm well), incubated in serum-free DMEM containing 50 μg/ml sodium ascorbate and 20 μg/ml β-aminopropionitrile, are exposed for 24 hours to increasing concentrations of hydroxypyridones. After centrifugation, to clear any cellular debris, these supernatants are used to determine the levels of type I and III procollagens, using commercially available radioimmunoassays (Incstar and Behringwerke, respectively).
(§3) Human SMC (3-5×10^5 cells/35 mm well), grown to confluency and incubated in serum-free DMEM containing 50 μg/ml sodium ascorbate and 20 μg/ml β-aminopropionitrile, were exposed for 24 hours to increasing concentrations of test compounds. […] Type I procollagen biosynthesis also was quantified by Western analysis in the following manner. […] Immunoblots were scanned with a UMAX UC630 flatbed scanner and quantified densitometrically using standard software.

[2] = biological target: T1, prolyl 4-hydroxylase in human coronary smooth muscle cells (SMC) (Homo sapiens, UniProt P13674); assay: Assay of cellular human prolyl 4-hydroxylase in lesion-derived SMC (3H-proline labeling); format: cell-based; conditions: upon removal of the inhibitor
T1 construct: 3H-proline to 3H-hydroxyproline conversion
T1 sequence (P13674 18-534): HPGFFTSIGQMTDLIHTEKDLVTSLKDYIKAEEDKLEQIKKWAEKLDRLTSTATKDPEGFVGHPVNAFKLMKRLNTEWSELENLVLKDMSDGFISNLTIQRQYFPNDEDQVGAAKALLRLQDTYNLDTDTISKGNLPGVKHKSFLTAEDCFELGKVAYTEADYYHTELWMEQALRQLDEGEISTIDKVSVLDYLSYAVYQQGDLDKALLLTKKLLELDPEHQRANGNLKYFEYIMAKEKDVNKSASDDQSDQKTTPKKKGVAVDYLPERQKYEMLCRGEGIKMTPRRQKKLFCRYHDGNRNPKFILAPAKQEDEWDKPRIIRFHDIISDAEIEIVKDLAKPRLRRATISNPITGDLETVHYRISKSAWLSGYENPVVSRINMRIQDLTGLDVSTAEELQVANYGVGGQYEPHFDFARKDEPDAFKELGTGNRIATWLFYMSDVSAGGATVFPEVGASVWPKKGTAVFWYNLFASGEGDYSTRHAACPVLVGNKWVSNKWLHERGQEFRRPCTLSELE
T1 sequence (P07237 18-508 partner): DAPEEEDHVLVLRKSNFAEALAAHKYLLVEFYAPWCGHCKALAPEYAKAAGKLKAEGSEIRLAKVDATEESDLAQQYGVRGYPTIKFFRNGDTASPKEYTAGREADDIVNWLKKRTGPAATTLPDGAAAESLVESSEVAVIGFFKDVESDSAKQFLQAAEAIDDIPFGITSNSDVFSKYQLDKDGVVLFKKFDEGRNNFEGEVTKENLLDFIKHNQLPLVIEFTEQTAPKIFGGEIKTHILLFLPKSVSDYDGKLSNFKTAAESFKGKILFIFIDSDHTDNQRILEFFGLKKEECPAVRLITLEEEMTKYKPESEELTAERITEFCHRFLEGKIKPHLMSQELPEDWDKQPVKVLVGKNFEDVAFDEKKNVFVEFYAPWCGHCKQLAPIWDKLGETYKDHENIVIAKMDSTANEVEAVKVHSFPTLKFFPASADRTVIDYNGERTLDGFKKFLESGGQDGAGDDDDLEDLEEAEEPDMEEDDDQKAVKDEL
Protocol: Those SMC, immunocytochemically identified by reactivity to contractile α-actinas shown in FIGS. 4b and 4c were pretreated with inhibitor for 30 minutes prior to routine metabolic labeling with tritiated proline ("^3 H-Pro") for 24 hours, followed by standard hydrolysis and separation of amino acids from both supernatant and cells. The degree of inhibition of scar collagen formation was determined by measuring formation of tritiated hydroxyproline ("^3 H-Hyp").
Human coronary artery smooth muscle cells ("SMC") were isolated from specimens collected immediately after directional rotary atherectomy (Simpson AtheroCath, DVI, Inc., Redwood City, Calif.). […] To verify the SMC phenotype of the cultures, cells were plated onto LabTek 8-chamber slides and stained by indirect immunofluorescence for the SMC marker contractile α-actin, using a mouse monoclonal antibody specific for the contractile smooth muscle α-actin (clone No. IA4; Sigma) which was detected with FITC- or peroxidase-labeled […] (Sigma). […] Results were photodocumented with a Nikon Labophot 2 fluorescence microscope. […]

[3] = system: cellular deoxyhypusyl hydroxylase; conditions: Hanauske-Abel et al. 1994; cited from earlier work
[4] = system: type III procollagen; assay: Type III procollagen secretion by SMC; format: cell-based; conditions: human SMC, FIG. 6a
Protocol: as §1, §2, §3

[5] = system: plasminogen activator inhibitor-1 (PAI-1); assay: Plasminogen activator inhibitor assay, SMC supernatants; format: cell-based; conditions: human SMC, FIG. 6
Protocol: as §1
Supernatants of human SMC incubated with the hydroxypyridone L-mimosine under serum-free conditions (to avoid plasma-derived inhibitors) were tested for their ability to inhibit a standard amount of urokinase-type plasminogen activator (uPA) in the presence of plasminogen and the fluorometric peptide plasmin substrate d-Val-Leu-Lys-aminomethylcoumarin (Enzyme Systems, Livermore, Calif.). Inhibition of plasmin generation was compared to a standard curve of human PAI-1 (American Diagnostica, Greenwich, Conn.) to yield PAI-1 activity.

[6] = system: deoxyhypusyl hydroxylase activity in human smooth muscle cells; assay: Cellular deoxyhypusyl hydroxylase in human smooth muscle cells; format: cell-based; conditions: FIG. 3b
Protocol: (§4) In FIG. 3a, the effect on the human enzyme was determined by measuring in proliferating cultured B-lymphocytes the covalent incorporation of tritiated spermidine-derived label into cellular protein, after standard hydrolysis, chromatographic separation of amino acids, and expression of the results relative to uninhibited controls. In FIG. 3b, a standard chromatographic elution profile is shown as obtained from cultured human smooth muscle cells ("SMC"), grown out of coronary atherosclerotic lesions and metabolically labeled in the absence and presence of L-mimosine. […]
(§5) The cellular conversion of the precursor deoxyhypusine to the hydroxylated hypusine in cells was examined, after preincubation with the inhibitor for 60 minutes, by labeling the human cells with ^3 H-spermidine (5 μCi/ml) in 25 cm^2 flasks (1×10^6 cells/flask) for 24 hours prior to cell lysis, precipitation with 10% TCA containing 1 mM each of putrescine, spermidine, and spermine, and hydrolysis in 6 N HCl at 110° C. for 16 hours. The hydrolysate was analyzed for labeled amino acids on an amino acid analyzer by published methods (Park et al., J. Biol. Chem., 257:7217-7222 (1982), which is hereby incorporated by reference). The retention of purified hypusine and deoxyhypusine was determined from standards.

[7] = system: deoxyhypusyl hydroxylase activity in human B-lymphocytes; assay: Cellular deoxyhypusyl hydroxylase in human B-lymphocytes; format: cell-based; conditions: FIG. 3a
Protocol: as §4, §5

SMILES: N[C@@H](Cn1ccc(=O)c(O)c1)C(=O)O [L-Mimosine]
- inhibition of secretion of procollagen type I [1]: potent inhibitor; also recorded: selectively suppressive effect
- reversibility of suppression of cellular prolyl hydroxylase activity [2]: rapidly reversible
- inhibition of cellular deoxyhypusyl hydroxylase activity [3]: block the cellular deoxyhypusyl hydroxylase activity
- inhibition of secretion of procollagen type III [4]: potent inhibitor; also recorded: selectively suppressive effect
- secretion of plasminogen activator inhibitor-1 (PAI-1) [5]: not affected; also recorded: not on release of plasminogen activator inhibitor-1
- inhibition of deoxyhypusyl hydroxylase activity [6]: inhibit deoxyhypusyl hydroxylase activity; also recorded: label is shifted to the unhydroxylated precursor of Hps
- inhibition of deoxyhypusyl hydroxylase activity [7]: inhibit deoxyhypusyl hydroxylase activity
